# Measured values as given in PubChem BioAssay (NCI).
#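 GI50 marks 50% less growth. TGI is the concentration that stops growth completely.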
# Assays:
# Experiment in all cases: DTP human tumour cell line panel, 384-well format
# SR leukemia = tested on: SR leukemia
# CAKI-1 renal = tested on: CAKI-1 renal
# HT29 colon = tested on: HT29 colon
# A498 renal = tested on: A498 renal
# ACHN renal = tested on: ACHN renal
# OVCAR-5 ovarian = tested on: OVCAR-5 ovarian
# NCI-H23 lung = tested on: NCI-H23 lung
# HL-60(TB) leukemia = tested on: HL-60(TB) leukemia
# SF-539 CNS = tested on: SF-539 CNS
# UO-31 renal = tested on: UO-31 renal
# MDA-MB-435 melanoma = tested on: MDA-MB-435 melanoma
# RPMI-8226 leukemia = tested on: RPMI-8226 leukemia
# MDA-MB-231 breast = tested on: MDA-MB-231 breast
# OVCAR-4 ovarian = tested on: OVCAR-4 ovarian
# SW-620 colon = tested on: SW-620 colon
# SK-OV-3 ovarian = tested on: SK-OV-3 ovarian
# EKVX NSCLC = tested on: EKVX NSCLC
# CCRF-CEM leukemia = tested on: CCRF-CEM leukemia
# HOP-92 NSCLC = tested on: HOP-92 NSCLC
# SK-MEL-2 melanoma = tested on: SK-MEL-2 melanoma
# K-562 leukemia = tested on: K-562 leukemia
# UACC-257 melanoma = tested on: UACC-257 melanoma
# IGROV1 ovarian = tested on: IGROV1 ovarian
# 786-0 renal = tested on: 786-0 renal
# HCC-2998 colon = tested on: HCC-2998 colon
# MALME-3M melanoma = tested on: MALME-3M melanoma
# NCI-H460 NSCLC = tested on: NCI-H460 NSCLC
# HS 578T breast = tested on: HS 578T breast
# HCT-116 colon = tested on: HCT-116 colon
# KM12 colon = tested on: KM12 colon
# COLO 205 colon = tested on: COLO 205 colon
# T-47D breast = tested on: T-47D breast
# HCT-15 colon = tested on: HCT-15 colon
# MCF7 breast = tested on: MCF7 breast
# A549 NSCLC = tested on: A549 NSCLC
# NCI-H322M lung = tested on: NCI-H322M lung
# DU-145 prostate = tested on: DU-145 prostate
# SNB-75 CNS = tested on: SNB-75 CNS
# BT-549 breast = tested on: BT-549 breast
# MOLT-4 leukemia = tested on: MOLT-4 leukemia
# SF-295 CNS = tested on: SF-295 CNS
# UACC-62 melanoma = tested on: UACC-62 melanoma
# SNB-19 CNS = tested on: SNB-19 CNS
# M14 melanoma = tested on: M14 melanoma
# U251 glioblastoma = tested on: U251 glioblastoma
# OVCAR-3 ovarian = tested on: OVCAR-3 ovarian
# HOP-62 NSCLC = tested on: HOP-62 NSCLC
smiles,measurement,setting,value
[2H]c1nc(C)nc([2H])c1-c1cc(NC[C@@H](C)c2cccc3c(C(=O)NC)ccnc23)ncn1,GI50,SR leukemia,18.9 µM
same,TGI,SR leukemia,50.3 µM
same,GI50,CAKI-1 renal,> 100 µM
same,TGI,CAKI-1 renal,> 100 µM
same,GI50,HT29 colon,> 100 µM
same,TGI,HT29 colon,> 100 µM
same,GI50,A498 renal,> 100 µM
same,TGI,A498 renal,> 100 µM
same,GI50,ACHN renal,> 100 µM
same,TGI,ACHN renal,> 100 µM
same,GI50,OVCAR-5 ovarian,> 100 µM
same,TGI,OVCAR-5 ovarian,> 100 µM
same,GI50,NCI-H23 lung,> 100 µM
same,TGI,NCI-H23 lung,> 100 µM
same,GI50,HL-60(TB) leukemia,55.8 µM
same,TGI,HL-60(TB) leukemia,> 100 µM
same,GI50,SF-539 CNS,> 100 µM
same,TGI,SF-539 CNS,> 100 µM
same,GI50,UO-31 renal,> 100 µM
same,TGI,UO-31 renal,> 100 µM
same,GI50,MDA-MB-435 melanoma,> 72.5 µM
same,TGI,MDA-MB-435 melanoma,> 100 µM
same,GI50,RPMI-8226 leukemia,70.2 µM
same,TGI,RPMI-8226 leukemia,> 100 µM
same,GI50,MDA-MB-231 breast,> 100 µM
same,TGI,MDA-MB-231 breast,> 100 µM
same,GI50,OVCAR-4 ovarian,> 100 µM
same,TGI,OVCAR-4 ovarian,> 100 µM
same,GI50,SW-620 colon,> 100 µM
same,TGI,SW-620 colon,> 100 µM
same,GI50,SK-OV-3 ovarian,> 100 µM
same,TGI,SK-OV-3 ovarian,> 100 µM
same,GI50,EKVX NSCLC,> 100 µM
same,TGI,EKVX NSCLC,> 100 µM
same,GI50,CCRF-CEM leukemia,> 100 µM
same,TGI,CCRF-CEM leukemia,> 100 µM
same,GI50,HOP-92 NSCLC,> 100 µM
same,TGI,HOP-92 NSCLC,> 100 µM
same,GI50,SK-MEL-2 melanoma,> 100 µM
same,TGI,SK-MEL-2 melanoma,> 100 µM
same,GI50,K-562 leukemia,48.1 µM
same,TGI,K-562 leukemia,> 100 µM
same,GI50,UACC-257 melanoma,> 100 µM
same,TGI,UACC-257 melanoma,> 100 µM
same,GI50,IGROV1 ovarian,> 100 µM
same,TGI,IGROV1 ovarian,> 100 µM
same,GI50,786-0 renal,> 100 µM
same,TGI,786-0 renal,> 100 µM
same,GI50,HCC-2998 colon,> 100 µM
same,TGI,HCC-2998 colon,> 100 µM
same,GI50,MALME-3M melanoma,> 100 µM
same,TGI,MALME-3M melanoma,> 100 µM
same,GI50,NCI-H460 NSCLC,> 100 µM
same,TGI,NCI-H460 NSCLC,> 100 µM
same,GI50,HS 578T breast,> 100 µM
same,TGI,HS 578T breast,> 100 µM
same,GI50,HCT-116 colon,> 100 µM
same,TGI,HCT-116 colon,> 100 µM
same,GI50,KM12 colon,> 100 µM
same,TGI,KM12 colon,> 100 µM
same,GI50,COLO 205 colon,> 100 µM
same,TGI,COLO 205 colon,> 100 µM
same,GI50,T-47D breast,> 100 µM
same,TGI,T-47D breast,> 100 µM
same,GI50,HCT-15 colon,> 100 µM
same,TGI,HCT-15 colon,> 100 µM
same,GI50,MCF7 breast,> 100 µM
same,TGI,MCF7 breast,> 100 µM
same,GI50,A549 NSCLC,> 100 µM
same,TGI,A549 NSCLC,> 100 µM
same,GI50,NCI-H322M lung,> 100 µM
same,TGI,NCI-H322M lung,> 100 µM
same,GI50,DU-145 prostate,> 100 µM
same,TGI,DU-145 prostate,> 100 µM
same,GI50,SNB-75 CNS,> 100 µM
same,TGI,SNB-75 CNS,> 100 µM
same,GI50,BT-549 breast,> 100 µM
same,TGI,BT-549 breast,> 100 µM
same,GI50,MOLT-4 leukemia,> 85.7 µM
same,TGI,MOLT-4 leukemia,> 100 µM
same,GI50,SF-295 CNS,> 100 µM
same,TGI,SF-295 CNS,> 100 µM
same,GI50,UACC-62 melanoma,> 100 µM
same,TGI,UACC-62 melanoma,> 100 µM
same,GI50,SNB-19 CNS,> 100 µM
same,TGI,SNB-19 CNS,> 100 µM
same,GI50,M14 melanoma,> 100 µM
same,TGI,M14 melanoma,> 100 µM
same,GI50,U251 glioblastoma,> 100 µM
same,TGI,U251 glioblastoma,> 100 µM
same,GI50,OVCAR-3 ovarian,> 100 µM
same,TGI,OVCAR-3 ovarian,> 100 µM
same,GI50,HOP-62 NSCLC,> 100 µM
same,TGI,HOP-62 NSCLC,> 100 µM
